Measurements: paper PMC12830207, “Targeting the protein–protein interaction between the CDC37 cochaperone and client kinases by an allosteric RAF dimer breaker” (The Journal of Biological Chemistry, 2025)

Tests used:
[1] = system: CRAF–CDC37/HSP90 chaperone complex; test: Co-IP of MBP-CRAF-FLAG with endogenous CDC37–HSP90 chaperone complex; assay type: cell-based, human (HEK293); settings: HEK293, 50 μM braftide, 4 h, bortezomib pretreatment, three biological replicates
Description: (§1) HEK293 cells were seeded at 1(10)^6 cells per well for a 6-well plate or 5(10)^6 for 10 cm dishes and incubated until 40% to 60% confluency. Transfection was carried out using a 1:3 DNA:PEI-MAX ratio in OPTI-MEM and allowed 48 h for protein expression. For peptide assays, 48 h post-transfection, cells were treated with TAT–braftide carried in OPTI-MEM at indicated concentrations. Cells were harvested in cold PBS. Harvested cells were lysed in 4% SDS or modified radioimmunoprecipitation assay (RIPA) for co-IP experiments. Quantification of total protein by the bicinchoninic acid assay was carried out according to the manufacturer's protocols (Pierce; catalog no.: 23225).
(§2) Transfected HEK293 cells were treated with the indicated treatments and harvested in cold PBS. […] Samples were analyzed via immunoblot.
(§3) Western blot band densities were quantified with ImageJ software (National Institutes of Health) and normalized to the indicated loading control. Statistical significance was determined through one-/two-way ANOVA, where indicated, followed by Tukey's honest significant difference post hoc test with corresponding p values (∗p < 0.05, ∗∗p < 0.002, ∗∗∗p < 0.0002, and ∗∗∗∗p < 0.0001). […]

CDC37–CRAF interaction = test: Co-IP of CDC37-FLAG with CRAF-HA in HEK293; assay type: cell-based, human (HEK293); settings: HEK293, 25 μM braftide, bortezomib pretreatment
Description: as §1, §2, §3

CDC37–BRAF interaction = test: Co-IP of CDC37-FLAG with BRAF-V5 in HCT116; assay type: cell-based; settings: HCT116, 5 µM braftide, three biological replicates
Description: as §1, §2, §3

CRAF–CDC37 interaction = test: NanoBiT luminescence CDC37–RAF interaction reporter assay, CRAF^SmBiT–CDC37^LgBiT; assay type: cell-based, human (HEK293); settings: HEK293, 25 μM braftide, 4 h, 1 μM bortezomib pretreatment 5 h, 10 μM furimazine, 470 to 480 nm
Excerpt: NanoBiT cytomegalovirus MCS BiBiT vector, which contains a BRAF N terminal fused with LgBiT and CRAF N terminal fused with SmBiT, was purchased from Promega. CDC37 LgBiT and CRAF SmBiT was generated using the standard Gibson Assembly (NEB HiFi Assembly) using NanoBiT BiBiT as the vector and following primers: 5′ […] 3′, 5′ […] 3′, and CDC37 LgBiT and BRAF SmBiT was generated using the standard Gibson Assembly using NanoBiT BiBiT as the vector and following primers: 5′ […] 3′, 5′ […] 3′. Primers were designed to introduce H20A, N22A, I23A triple mutation within the CDC37 FLAG tag and for NanoBiT construct CDC37(HNI/A) LgBit and BRAF SmBiT. Primers were designed to introduce the desired substitutions. The forward primer sequence was 5′ gccgcc[…] […]
Twenty-four hours post-transfection, cells were trypsinized, pelleted, resuspended in OptiMEM + 4% fetal bovine serum, and reseeded onto a 96-well plate at 5(10)^4 cells per well and then incubated at 37 °C overnight. […] After treatment, 10 μM furimazine substrate was added to each well, and luminescence readings were taken at 470 to 480 nm using a CLARIOstar plate reader. Statistical significance was determined through a paired t test where indicated, followed by Tukey's honest significant difference post hoc test with corresponding p values (∗p < 0.05, ∗∗p < 0.01, and ∗∗∗p < 0.001). […]

CRAF = CRAF ubiquitination (IP of MBP-CRAF-FLAG, ubiquitin immunoblot); assay type: cell-based, human (HEK293); settings: HEK293, MBP-CRAF-FLAG, 50 μM braftide, bortezomib pretreatment
Description: as §1, §2, §3

[2] = system: MAPK proteins (BRAF, CRAF, MEK, pMEK, ERK, pERK); test: Immunoblot of MAPK proteins in HCT116 cells; assay type: cell-based
Description: Western blot band densities were quantified with ImageJ software (National Institutes of Health) and normalized to the indicated loading control. Statistical significance was determined through one-/two-way ANOVA, where indicated, followed by Tukey's honest significant difference post hoc test with corresponding p values (∗p < 0.05, ∗∗p < 0.002, ∗∗∗p < 0.0002, and ∗∗∗∗p < 0.0001). All graph bars represent the mean ± SD with individual data points per biological replicate with corresponding p values.

HCT116 cells = test: WST-1 cell viability assay, HCT116; assay type: cell-based; settings: HCT116, WST-1, 24 h
Description: HCT116 and WM3629 cells were seeded onto polylysine-coated, clear-bottomed, 96-well plates at 15(10)^3 cells per well and allowed to incubate for 24 h. Cells were treated with braftide and 17-AAG mixtures at indicated concentrations for 24 h (37 °C). The WST-1 cell viability assay was carried out according to the manufacturer's protocols (Roche; 11644807001) for 4 h, and absorbance readings were taken at 450 nM in a CLARIOstar plate reader. For the dose–response curves of braftide and 17-AAG, the data were fit to the 4-parameter logistic equation (dose–response fitting equation) in GraphPad Prism (Dotmatics): y=A1+(A2−A1)÷(1+10^(LOGx0−x)p)
Error bars are indicative of the SEM of each point.

WM3629 cells = settings: WM3629, reported; read-out: EC50, braftide, WM3629; cited from earlier work
Excerpt: Based on the observed synergistic effects of inhibiting the ternary complex, the antiproliferative effects were explored using combinatorial treatment in two RAF-dimer–dependent cell lines: HCT116 and WM3629. HCT116 cells mainly rely on the wildtype BRAF–CRAF heterodimer and BRAF–BRAF homodimer to relay the MAPK signal, whereas WM3629 cells contain the BRAF D594G mutant, which is a kinase-dead mutant and depends on dimerization with CRAF for activation ([34]).

GRKKRRQRRRPQ-miniPEG-TRHVNILLFM [Braftide]
association of CRAF with CDC37 and HSP90 [1]: reduced their association with CDC37 and HSP90 compared with the nontreated control | CDC37–CRAF complex (CDC37–CRAF interaction): reduced the CDC37–client BRAF–CRAF complex | CDC37–BRAF interaction (CDC37–BRAF interaction): decreases its association with coimmunoprecipitated BRAF-V5 and CRAF-HA | CDC37–BRAF interaction (CDC37–BRAF interaction; listed as braftide): reduced the CDC37–RAF interaction at lower doses than in HEK293 cells | NanoBiT luminescence, CRAF^SmBiT–CDC37^LgBiT (CRAF–CDC37 interaction): reduction in luminescence, reflecting a decrease in the CDC37–RAF interaction | CRAF ubiquitination (CRAF): increased CRAF ubiquitination | inhibition by monotherapy at 500 nM ([2]; HCT116, 500 nM single agent, immunoblot): Neither 17-AAG nor braftide monotherapy exhibited obvious inhibition | MAPK pathway protein levels, proteomics samples ([2]; HCT116, 10 µM braftide, 1 hr, 37°C, n=3): decreases MAPK pathway protein levels | synergy of braftide and 17-AAG, HCT116 (HCT116 cells): synergy between braftide and 17-AAG | EC50 (WM3629 cells): 11.1 ± 1.12 µM
